The values below come from article PMC10051485 (Pharmaceuticals, 2023).

Entries after “also recorded” stand apart in the source; their conditions may differ.

The nature of data set [1]: in vitro. The settings on record: human. The protocol:
(§1) SK-N-SH cells were pretreated for 3 h with the respective half-maximal inhibitory doses of the tested compounds (except 9 and 10) before incubating with 25 μM Aβ42 for 24 h to determine the neuroprotective effect against Aβ42-induced toxicity. The relative cell viability (compared with the control) was then assessed.
(§2) Quantitative measurement of cell viability was performed by MTT assay. Briefly, SK-N-SH cells were seeded at a density of 5 × 10^4 cells/100 µL into each well of 96-well plate and incubated at 37 °C in 5% CO2 for 24 h. After incubation, the tested compounds were added at different concentrations, from 0 to 1000 µM. After incubation for 24 h, 50 µL of 3-(4,5-dimethylthiazol-2-yl)-2,5-diphenyltetrazolium bromide (MTT) stock solution (1 mg/mL) was added to each well and incubated at 37 °C for 3 h. Absorbance (A) of each well was measured using a plate reader at a wavelength of 590 nm. Three independent experiments were performed, and results were expressed as mean ± SD. […] Each concentration was prepared in triplicate. […] After incubation for 24 h, 50 µL of MTT stock solution (1 mg/mL) was added to each well and incubated at 37 °C for 3 h. The absorbance (A) of each well was measured using a plate reader at a wavelength of 590 nm. Three independent experiments were performed, and results were expressed as mean ± SD.
(§3) The percent of cell viability was calculated as follow: (A590nm of treated cells/A590nm of untreated cells) × 100.

Data set [2] concerns SK-N-SH neuroblastoma cells. In words: Cytotoxicity on SK-N-SH neuroblastoma cells (MTT assay). The settings on record: MTT, 24 h, tested 0–1000 µM. The method, then:
as §1, §2, §3
(In general: Formazan colour is commonly taken as a measure of viable cells.)

A short description of data set [3]: Antioxidant activity (DPPH assay). The settings on record: DPPH 0.4 mM, 30 min in darkness; read-out: IC50 (µM) ± RSD, antioxidative activity. The method, then:
Increased generation of free radicals also results in cytotoxicity from Aβ42. This effect might be associated with the Aβ1–42 mediated neurotoxicity. Therefore, it was intriguing to research the roles of the synthesized compounds in assisting oxidative stress, thus preventing cell death. By employing vitamin C as a positive control, the antioxidative properties of synthesized compounds were assessed using the DPPH assay. The activities were presented as the IC50 in Table 4.
Antioxidant activity of tested compounds was determined by the reaction of stable DPPH radical with some modification. Briefly, various concentrations of test compounds were added in 96-well plates and then the methanolic DPPH solution (0.4 mM, 0.1 mL) into each well. The reaction mixture was placed for 30 min in darkness. The degree of purple DPPH decolorization to yellow DPPH indicated the scavenging capacity of the test compounds. The absorbance of the mixture was determined at 517 nm using a microplate reader and L-ascorbic acid served as a positive control. The percent of antioxidant activity was calculated as follow: [1 − (Asample − Ablank)/Acontrol] × 100.
On the technique in general: Loss of DPPH colour is used to gauge radical scavenging.

The test system of data set [4] is SK-N-SH cells. In words: Morphological cell changes (phase contrast inverted microscope). It counts as cell-based, human. The settings on record: 25 µM Aβ42, 24 h. The method, then:
The effect of Aβ42 in inducing cell death was confirmed using a phase-contrast inverted microscope.
To determine the effect of designed compounds on cell morphology, the observation of cells on phase contrast inverted microscope was performed. […] After incubation, the medium was removed and replaced with various concentrations of the designed compound and incubated for 24 h. After cells were treated with compounds or Aβ1–42, media were removed and treated cells were washed once with phosphate buffer saline (PBS). Then, cells were observed under phase contrast inverted microscope at 400 magnifications.

The target in data set [5] is T1, Acetylcholinesterase (AChE) (Electrophorus electricus, UniProt O42275).
T1 construct: purchased Sigma type VI-S
T1 sequence (O42275 24-633): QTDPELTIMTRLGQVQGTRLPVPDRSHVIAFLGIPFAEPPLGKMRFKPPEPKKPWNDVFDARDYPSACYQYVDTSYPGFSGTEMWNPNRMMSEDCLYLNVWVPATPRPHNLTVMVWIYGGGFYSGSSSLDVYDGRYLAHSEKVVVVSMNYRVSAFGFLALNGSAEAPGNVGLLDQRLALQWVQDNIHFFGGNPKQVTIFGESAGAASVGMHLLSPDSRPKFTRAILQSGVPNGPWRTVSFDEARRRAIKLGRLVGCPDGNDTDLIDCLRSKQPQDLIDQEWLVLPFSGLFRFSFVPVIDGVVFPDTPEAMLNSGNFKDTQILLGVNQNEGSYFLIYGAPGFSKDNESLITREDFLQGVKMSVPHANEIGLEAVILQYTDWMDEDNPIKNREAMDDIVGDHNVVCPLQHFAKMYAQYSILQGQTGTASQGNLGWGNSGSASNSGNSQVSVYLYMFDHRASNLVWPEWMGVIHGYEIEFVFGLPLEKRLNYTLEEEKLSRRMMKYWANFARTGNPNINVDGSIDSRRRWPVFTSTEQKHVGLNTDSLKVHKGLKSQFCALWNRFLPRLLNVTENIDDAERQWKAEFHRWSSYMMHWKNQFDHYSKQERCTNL
In words: Antiacetylcholinesterase activity (Ellman assay). It counts as biochemical, Electrophorus electricus (electric eel). The settings on record: read-out: % Inhibition ± RSD of acetylcholinesterase. The method, then:
All the chemicals were purchased from commercial suppliers and were used without any purification. Acetylcholinesterase from Electrophorus electricus (electric eel) type VI-S was produced from Sigma. […] SK-N-SH human neuroblastoma cell line was obtained from the American Type Culture Collection (ATCC HTB-11). The melting point of all compounds was determined on an Electrothermal model 9100 capillary melting point apparatus. Infrared (IR) spectra were run on Fourier Transform Infrared Spectroscopy (FT-IR) (Nicolet 6700, Thermo Scientific, Waltham, MA, USA) using the direct compression technique and record in cm^−1. Proton and carbon nuclear magnetic resonance (^1H NMR, ^13C NMR) spectra were obtained on an Advance 300 MHz NMR Spectroscopy (DPX-3000, Bruker, Switzerland) at 300 MHz and 75.45 MHz, respectively. Chemical shifts (δ) were reported in parts per million (ppm). The NMR solvents used were deuterated dimethylsulfoxide (DMSO-d6, δ = 2.49 ppm) and deuterated chloroform (CDCl3, δ = 7.25 ppm). Mass spectra were determined on a LCQ Fleet Ion Trap Mass Spectrometry using the ESI method. Silica gel 60 (Merck, Art 7734) was used for column chromatography as an adsorbent. The ratio of sample and the adsorbent was about 1:40–60 by weight. The mobile phases developed for thin-layer chromatography (TLC) were generally applied for a column. TLC investigations routinely used for chromatographic separations were carried out on silica gel F254 coated aluminum sheets 20 × 20 cm (Merck, 0.2 mm thickness). The components were detected by visualization under ultraviolet (UV) light at λ of 254 and 365 nm. All solvents were reagent grade and, when necessary, were purified and dried by standard methods. Starting materials and reagents were obtained from commercial suppliers.
Acetylcholinesterase (AChE) inhibitory activity was assayed by modified Ellman’s method using 96-well microplates. […] The absorbance of the mixture in each well was measured at 405 nm by using a microplate reader. After adding 25 µL of 0.22 U/mL AChE in Buffer II into each well, the measurement of absorbance was carried out again at 405 nm and repeated every 45 s for 10 min cycles by a microplate reader (Infinite M200, Tecan, Switzerland). […] The assay was performed in triplicate. […] The percent of enzyme inhibition was calculated as follows: {[(A-B) − (C − D)]/(A − B)} × 100, where A and C were the absorbances of the control treatment and test compounds; and B and D were blank of control and test compounds.
(Ellman's reagent forms a yellow product with free thiols.)

The target of data set [6] is T2, Aβ1–42 (Homo sapiens, UniProt P05067).
T2 construct: Amyloid beta (Aβ1–42) was purchased from the American Peptide Company; purchased American Peptide Company (Sunnyvale, CA, USA)
T2 sequence (P05067 672-713): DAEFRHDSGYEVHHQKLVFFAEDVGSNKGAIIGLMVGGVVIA
In words: Anti-Aβ aggregation activity (Thioflavin T fluorescence assay). The class given is biochemical. The settings on record: ThT assay, Aβ1–42, 24 h, room temperature, pH 7.4; read-out: IC50 (µM) ± RSD, antiaggregation action on Aβ42. The protocol:
Each compound was diluted in 50 mM Tris-HCl (pH 7.4) to achieve a concentration between 10 nM and 100 µM using 5 concentration points. A total of 1 µL of each sample solution was added to 96-well plates. […] The plate was incubated in the dark at room temperature for 24 h with no agitation. After an incubation period, 200 µL of 5 µM ThT in 50 mM Tris-HCl (pH 7.4) was added to each well. Fluorescence was measured on a SpectraMax GEMINI EM (Molecular Devices, Sunnyvale, CA, USA) dual scanning microplate spectrofluorometer with excitation and emission wavelengths at 446 nm and 500 nm, respectively. The percent of antiaggregation was calculated as follows: [1 − (Fsample − Fblank)/Fcontrol] × 100.

Broadly, the viability is a read-out of living cells in per cent, often relative to untreated cells. Low readings indicate more harm to the cells, high ones less harm to the cells. In general, IC50 refers to the point on the concentration scale where inhibition reaches its midpoint. Usually inhibition stands for the change of the read-out against control, counted positive when it falls. `Cc1[nH]c2ccc(Oc3ccccc3)cc2c1CC(=O)NS(C)(=O)=O` [Compound 5, 2-Methyl-3-(methylsulfonylethanamide-2-yl)-5-phenoxy Indole] displayed a viability at 24 h in data set [1] of 93 ± 1.02%. Moreover, the “Highest concentration that showed nontoxicity on SK-N-SH cells” value in data set [2] is listed as 62.50 µM. The half-maximal inhibitory concentration (IC50) in data set [3] was determined as 28.2 µM; in data set [6], 3.18 µM. In addition, in data set [4], the “Morphology of SK-N-SH cells treated with Aβ42 and compound” value was “healthy cell bodies with neurites; also recorded: healthy cell bodies and neuritis”. For the same molecule, the inhibition at 100 µM in data set [5] is -5.66%.
